Test [1] relates to Rattus norvegicus. Kind of test: Compound was tested for mean arterial pressure in the spontaneously hypertensive rat, activity expressed as mean arterial pressure before peroral administration of 0.17 mg/Kg dose. The test is classed as functional, Artery.
The subject of test [2] is Rattus norvegicus. Nature of the test: Compound was tested for mean arterial pressure in the spontaneously hypertensive rat, activity expressed as maximum % change in pressure after 3 hours of oral administration of 1.5 mg/Kg. The test is classed as functional, Artery.

On to `CC1(C)Oc2ccc(OC(F)(F)F)cc2[C@@H](NC(=O)c2ccco2)[C@@H]1O`, for which the “Mean arterial blood pressure” value in the test with Rattus norvegicus [1] turned out to be 175 mmHg. Also, the Change in the test on Rattus norvegicus [2] is on record as -30%.
For `CC1(C)c2ccc(C#N)cc2[C@@H](NC(=O)c2ccco2)[C@@H]1O`, the “Mean arterial blood pressure” value in the test on Rattus norvegicus [1] is 182 mmHg. The Change in the test on Rattus norvegicus [2] is recorded as -35%.
In the same order, the values of `CC1(C)Oc2ccccc2[C@@H](N2Cc3ccccc3C2=O)[C@@H]1O` are 184 mmHg and -26%.
For the compound `CC1(C)Oc2ccc(C#N)cc2[C@@H](N2Cc3ccccc3C2=O)[C@@H]1O`, the “Mean arterial blood pressure” value in the test on Rattus norvegicus [1] is listed as 173 mmHg. Besides, the Change with Rattus norvegicus [2] is listed as -23%.
As for `CC1(C)Oc2ccc(C#N)cc2[C@@H](N2CCCC2=O)[C@@H]1O` [CROMAKALIM], in the test on Rattus norvegicus [1], the “Mean arterial blood pressure” value was 171 mmHg. Further, the Change with Rattus norvegicus [2] is listed as -28%.
In the same order, the values of `CC1(C)Oc2ccc(OC(F)(F)F)cc2[C@@H](N2Cc3ccccc3C2=O)[C@@H]1O` [CELIKALIM] are 180 mmHg and -28%.
